Test results from US20210198647A1, “Enhancers of Neurolysin Activity” (Texas Tech University System, priority 2018, published 2021).
“And” between values parts separate entries of the source, which are not always exact repeats. Equal values may be shown once. Read-outs that look alike come from different tables or passages of the source. Each block holds one molecule with its values, some of them ahead of it. Square brackets hold non-standard residues; d marks the D form. Peptide text beside a SMILES is read from it. * marks the point of attachment. Boc = CC(C)(C)OC(=O)*

Target: T1, Neurolysin (Nln) (Rattus norvegicus, UniProt P42676)
T1 construct: polyhistidine (N); made in house; host or cells: Escherichia coli (pBAD/His vector), if the rat enzyme of b61 was used
Assay: Nln activation in isolated enzyme assay (A50, Amax)
Assay type: biochemical
Settings: for EC50: read-out: A50 (concentration required to activate Nln by 50%)

[1] = 100% = normal enzyme turnover, 95% CI in parentheses

T1 sequence (P42676 38-704): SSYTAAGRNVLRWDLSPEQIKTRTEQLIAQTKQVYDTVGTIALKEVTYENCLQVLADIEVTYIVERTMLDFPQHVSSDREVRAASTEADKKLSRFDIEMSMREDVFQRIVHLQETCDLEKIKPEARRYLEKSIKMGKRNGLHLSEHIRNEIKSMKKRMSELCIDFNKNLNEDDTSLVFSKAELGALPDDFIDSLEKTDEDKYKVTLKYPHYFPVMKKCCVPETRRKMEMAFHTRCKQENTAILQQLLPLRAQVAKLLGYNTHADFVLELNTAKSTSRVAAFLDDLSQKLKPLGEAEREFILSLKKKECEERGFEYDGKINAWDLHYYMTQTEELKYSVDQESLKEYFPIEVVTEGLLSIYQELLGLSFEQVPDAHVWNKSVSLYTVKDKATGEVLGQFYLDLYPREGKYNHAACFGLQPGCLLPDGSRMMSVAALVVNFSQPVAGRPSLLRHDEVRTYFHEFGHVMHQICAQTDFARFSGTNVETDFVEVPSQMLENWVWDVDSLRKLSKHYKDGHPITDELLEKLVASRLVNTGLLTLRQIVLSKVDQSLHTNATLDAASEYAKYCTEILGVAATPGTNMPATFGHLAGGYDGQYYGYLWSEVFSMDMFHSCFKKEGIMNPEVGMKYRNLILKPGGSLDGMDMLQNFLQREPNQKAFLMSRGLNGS

Structure (SMILES): N[C@@H](Cc1c[nH]cn1)C(=O)N[C@@H](Cc1ccccc1)C(=O)O (stereo in doubt) [Compound 3, His-Phe]
EC50 (95% CI in parentheses): 130 µM
Amax (maximum % activation achieved) [1]: 573 (547.9 to 602.7) %
Amax (maximum % activation achieved) (100% = normal enzyme turnover, 95% CI in parentheses, listed as His-Phe): 573 (547.9 to 602.7) %

Structure (SMILES): N[C@@H](Cc1c[nH]cn1)C(=O)NCCCCc1ccccc1 [Compound 8a, (S)-2-amino-3-(1H-imidazol-4-yl)-N-(4-phenylbutyl)propanamide]
Amax (maximum % activation achieved) [1]: 328 (309-351) %

Structure (SMILES): N[C@@H](Cc1c[nH]cn1)C(=O)NCCc1ccc2ccccc2c1 [SR18-1]
Amax (maximum % activation achieved): 323.7 (310.3 to 337.9) %

Structure (SMILES): CC(C)(C)OC(=O)N[C@@H](Cc1c[nH]cn1)C(=O)N[C@H](Cc1ccccc1)C(=O)O [Compound 4b] (Boc-His-[dF]-OH)
Nln activation (in words): inactive

Structure (SMILES): N[C@@H](Cc1ccc(O)cc1)C(=O)N[C@H](Cc1c[nH]cn1)C(=O)O [Compound 4a, H-Try-His-OH] (H-Tyr-[dH]-OH)
Nln activation (in words): complete amelioration of Nln activation
A50 (concentration required to activate Nln by 50%) (95% CI in parentheses): Inactive
Amax (maximum % activation achieved) [1]: Inactive

Structure (SMILES): COc1ccccc1CNC(=O)[C@@H](N)Cc1c[nH]cn1 [Compound 5d]
Amax (maximum % activation achieved): 385.8 (363.8 to 410.5) %

Structure (SMILES): N[C@@H](Cc1c[nH]cn1)C(=O)NCc1ccc(F)cc1 [DF-6-2A]
Amax (maximum % activation achieved): 252 (235.6 to 270.5) %

Structure (SMILES): N[C@@H](Cc1c[nH]cn1)C(=O)NCCc1ccc(C(F)(F)F)cc1 [AB 3-2-2]
Amax (maximum % activation achieved): 438.4 (379.4 to 520.4) %

Structure (SMILES): N[C@@H](Cc1c[nH]cn1)C(=O)NCCCc1ccccc1 [Compound 7a, (S)-2-amino-3-(1H-imidazol-4-yl)-N-(3-phenylpropyl)propanamide]
Amax (maximum % activation achieved) [1]: 288.1 (273.6 to 303.8) %

Structure (SMILES): COc1ccc(CCNC(=O)[C@@H](N)Cc2c[nH]cn2)cc1 [AB-1-4-2]
Amax (maximum % activation achieved) [1]: 544 (492.2 to 609.4) %

Structure (SMILES): N[C@@H](Cc1c[nH]cn1)C(=O)NCCc1ccccc1 [Compound 4c, (S)-2-amino-3-(1H-imidazol-4-yl)-N-phenethylpropanamide]
Amax (maximum % activation achieved) [1]: 337.2 (302-378.6) %

Structure (SMILES): N[C@@H](Cc1c[nH]cn1)C(=O)NCc1ccc(SC(F)(F)F)cc1 [Compound 5r]
Amax (maximum % activation achieved): 287.5 (277.4 to 298.4) %

The remaining lines, values ahead:

EC50 (95% CI in parentheses): 252 µM
Amax (maximum % activation achieved) [1]: 467% and 466.6%
Structure (SMILES): N[C@@H](Cc1c[nH]cn1)C(=O)Nc1ccccc1 [Compound 6a, (S)-2-amino-3-(1H-imidazol-4-yl)-N-phenylpropanamide]

EC50 (95% CI in parentheses): 6.3 µM
Amax (maximum % activation achieved) [1]: 197.5 (184.9 to 214.8) %
Structure (SMILES): N[C@H](Cc1c[nH]cn1)C(=O)NCc1ccc2ccccc2c1 [Compound 10b, (R)-2-amino-3-(1H-imidazol-4-yl)-N-(naphthalen-2-ylmethyl)propanamide]
